Assays:
Experiment in all cases: relative viability (nuclei count vs DMSO), 5 days (fraction); higher = more cells survive
Ibrutinib + Luminespib = compound: C=CC(=O)N1CCC[C@@H](n2nc(-c3ccc(Oc4ccccc4)cc3)c3c(N)ncnc32)C1 [Ibrutinib] + CCNC(=O)c1noc(-c2cc(C(C)C)c(O)cc2O)c1-c1ccc(CN2CCOCC2)cc1 [Luminespib] (partner 0.01 µM)
In short: (§1)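 Lung cancer cell lines were pin-tool dosed in 1536-well plates on the day after seeding, with either a lone drug or a fixed anchor-drug dose plus five library-drug doses (not always all listed) in √10 steps. Nuclei were counted on 4× images after 5 days. Relative viability is the ratio of treated-well to vehicle-well nuclei counts, with each value a median of duplicate plates.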

Ibrutinib + Crizotinib = compound: C=CC(=O)N1CCC[C@@H](n2nc(-c3ccc(Oc4ccccc4)cc3)c3c(N)ncnc32)C1 [Ibrutinib] + C[C@@H](Oc1cc(-c2cnn(C3CCNCC3)c2)cnc1N)c1c(Cl)ccc(F)c1Cl [Crizotinib] (partner 1 µM)
In short: as §1

Ibrutinib + AZD7762 = compound: C=CC(=O)N1CCC[C@@H](n2nc(-c3ccc(Oc4ccccc4)cc3)c3c(N)ncnc32)C1 [Ibrutinib] + NC(=O)Nc1cc(-c2cccc(F)c2)sc1C(=O)N[C@H]1CCCNC1 [AZD7762] (partner 0.2 µM)
In short: as §1

BMX-IN-1 + Lapatinib = compound: C=CC(=O)Nc1cc(-n2c(=O)ccc3cnc4ccc(-c5ccc(NS(C)(=O)=O)cc5)cc4c32)ccc1C [BMX-IN-1] + CS(=O)(=O)CCNCc1ccc(-c2ccc3ncnc(Nc4ccc(OCc5cccc(F)c5)c(Cl)c4)c3c2)o1 [Lapatinib] (partner 2 µM)
In short: as §1

NCI-H1975 was tested, and the relative viability (Ibrutinib + Luminespib; first compound 0.005 µM) was 0.162, the relative viability (Ibrutinib + Luminespib; first compound 0.01581 µM) was 0.183 and the relative viability (Ibrutinib + Luminespib; first compound 0.05 µM) was 0.212. It also gave a relative viability (Ibrutinib + Luminespib; first compound 0.1581 µM) of 0.254, a relative viability (Ibrutinib + Luminespib; first compound 0.5 µM) of 0.138 and a relative viability (Ibrutinib + Crizotinib; first compound 0.005 µM) of 0.986. It also gave a relative viability (Ibrutinib + Crizotinib; first compound 0.01581 µM) of 0.859, a relative viability (Ibrutinib + Crizotinib; first compound 0.05 µM) of 0.88 and a relative viability (Ibrutinib + Crizotinib; first compound 0.1581 µM) of 0.96. It also gave a relative viability (Ibrutinib + Crizotinib; first compound 0.5 µM) of 0.558, a relative viability (Ibrutinib + AZD7762; first compound 0.005 µM) of 0.647 and a relative viability (Ibrutinib + AZD7762; first compound 0.01581 µM) of 0.556. It also gave a relative viability (Ibrutinib + AZD7762; first compound 0.05 µM) of 0.517, a relative viability (Ibrutinib + AZD7762; first compound 0.1581 µM) of 0.522 and a relative viability (Ibrutinib + AZD7762; first compound 0.5 µM) of 0.342. For the same cell line, the relative viability (BMX-IN-1 + Lapatinib; first compound 0.02 µM) was 1.27, the relative viability (BMX-IN-1 + Lapatinib; first compound 0.2 µM) was 0.869 and the relative viability (BMX-IN-1 + Lapatinib; first compound 0.6325 µM) was 1.23. For the same cell line, the relative viability (BMX-IN-1 + Lapatinib; first compound 2 µM) was 0.929.

For NCI-H1993, the relative viability (Ibrutinib + Luminespib; first compound 0.005 µM) was 0.607, the relative viability (Ibrutinib + Luminespib; first compound 0.01581 µM) was 0.78 and the relative viability (Ibrutinib + Luminespib; first compound 0.05 µM) was 0.824. For the same cell line, the relative viability (Ibrutinib + Luminespib; first compound 0.1581 µM) was 0.689, the relative viability (Ibrutinib + Luminespib; first compound 0.5 µM) was 0.605 and the relative viability (Ibrutinib + Crizotinib; first compound 0.005 µM) was 0.843. For the same cell line, the relative viability (Ibrutinib + Crizotinib; first compound 0.01581 µM) was 0.744, the relative viability (Ibrutinib + Crizotinib; first compound 0.05 µM) was 0.704 and the relative viability (Ibrutinib + Crizotinib; first compound 0.5 µM) was 0.713. The relative viability (Ibrutinib + AZD7762; first compound 0.005 µM) was 0.39, the relative viability (Ibrutinib + AZD7762; first compound 0.01581 µM) was 0.732 and the relative viability (Ibrutinib + AZD7762; first compound 0.05 µM) was 0.739. The relative viability (Ibrutinib + AZD7762; first compound 0.1581 µM) was 0.751, the relative viability (Ibrutinib + AZD7762; first compound 0.5 µM) was 0.557 and the relative viability (BMX-IN-1 + Lapatinib; first compound 0.02 µM) was 0.68. The relative viability (BMX-IN-1 + Lapatinib; first compound 0.2 µM) was 0.754 and the relative viability (BMX-IN-1 + Lapatinib; first compound 2 µM) was 0.815.

NCI-H2085 gave a relative viability (Ibrutinib + Luminespib; first compound 0.005 µM) of 0.349, a relative viability (Ibrutinib + Luminespib; first compound 0.01581 µM) of 0.465 and a relative viability (Ibrutinib + Luminespib; first compound 0.05 µM) of 0.504. The relative viability (Ibrutinib + Luminespib; first compound 0.1581 µM) was 0.489, the relative viability (Ibrutinib + Luminespib; first compound 0.5 µM) was 0.447 and the relative viability (Ibrutinib + Crizotinib; first compound 0.005 µM) was 0.92. The relative viability (Ibrutinib + Crizotinib; first compound 0.01581 µM) was 0.852, the relative viability (Ibrutinib + Crizotinib; first compound 0.05 µM) was 0.772 and the relative viability (Ibrutinib + Crizotinib; first compound 0.1581 µM) was 0.918. For the same cell line, the relative viability (Ibrutinib + Crizotinib; first compound 0.5 µM) was 0.706, the relative viability (Ibrutinib + AZD7762; first compound 0.005 µM) was 0.906 and the relative viability (Ibrutinib + AZD7762; first compound 0.01581 µM) was 0.926. The relative viability (Ibrutinib + AZD7762; first compound 0.05 µM) was 0.919, the relative viability (Ibrutinib + AZD7762; first compound 0.1581 µM) was 0.926 and the relative viability (Ibrutinib + AZD7762; first compound 0.5 µM) was 0.729. It also gave a relative viability (BMX-IN-1 + Lapatinib; first compound 0.02 µM) of 0.831, a relative viability (BMX-IN-1 + Lapatinib; first compound 0.2 µM) of 0.821 and a relative viability (BMX-IN-1 + Lapatinib; first compound 0.6325 µM) of 0.764. For the same cell line, the relative viability (BMX-IN-1 + Lapatinib; first compound 2 µM) was 0.763.

Work on NCI-H2087 yielded a relative viability (Ibrutinib + Luminespib; first compound 0.005 µM) of 0.161, a relative viability (Ibrutinib + Luminespib; first compound 0.01581 µM) of 0.136 and a relative viability (Ibrutinib + Luminespib; first compound 0.05 µM) of 0.153. It also gave a relative viability (Ibrutinib + Luminespib; first compound 0.5 µM) of 0.165, a relative viability (Ibrutinib + Crizotinib; first compound 0.005 µM) of 0.849 and a relative viability (Ibrutinib + Crizotinib; first compound 0.01581 µM) of 0.949. It also gave a relative viability (Ibrutinib + Crizotinib; first compound 0.05 µM) of 1.04, a relative viability (Ibrutinib + Crizotinib; first compound 0.1581 µM) of 0.872 and a relative viability (Ibrutinib + Crizotinib; first compound 0.5 µM) of 0.862. It also gave a relative viability (Ibrutinib + AZD7762; first compound 0.005 µM) of 1.77, a relative viability (Ibrutinib + AZD7762; first compound 0.01581 µM) of 1.19 and a relative viability (Ibrutinib + AZD7762; first compound 0.05 µM) of 1.04. It also gave a relative viability (Ibrutinib + AZD7762; first compound 0.5 µM) of 1.21, a relative viability (BMX-IN-1 + Lapatinib; first compound 0.02 µM) of 1.02 and a relative viability (BMX-IN-1 + Lapatinib; first compound 0.2 µM) of 1.29. The relative viability (BMX-IN-1 + Lapatinib; first compound 0.6325 µM) was 1.36 and the relative viability (BMX-IN-1 + Lapatinib; first compound 2 µM) was 1.06.

NCI-H2126 showed a relative viability (Ibrutinib + Luminespib; first compound 0.005 µM) of 0.651, a relative viability (Ibrutinib + Luminespib; first compound 0.01581 µM) of 0.756 and a relative viability (Ibrutinib + Luminespib; first compound 0.05 µM) of 0.855. The relative viability (Ibrutinib + Luminespib; first compound 0.1581 µM) was 0.962, the relative viability (Ibrutinib + Luminespib; first compound 0.5 µM) was 0.75 and the relative viability (Ibrutinib + Crizotinib; first compound 0.01581 µM) was 1. It also gave a relative viability (Ibrutinib + Crizotinib; first compound 0.05 µM) of 0.994, a relative viability (Ibrutinib + Crizotinib; first compound 0.1581 µM) of 1.06 and a relative viability (Ibrutinib + Crizotinib; first compound 0.5 µM) of 0.936. For the same cell line, the relative viability (Ibrutinib + AZD7762; first compound 0.005 µM) was 0.776, the relative viability (Ibrutinib + AZD7762; first compound 0.01581 µM) was 0.966 and the relative viability (Ibrutinib + AZD7762; first compound 0.05 µM) was 0.962. For the same cell line, the relative viability (Ibrutinib + AZD7762; first compound 0.1581 µM) was 0.986, the relative viability (Ibrutinib + AZD7762; first compound 0.5 µM) was 0.958 and the relative viability (BMX-IN-1 + Lapatinib; first compound 0.02 µM) was 0.899. It also gave a relative viability (BMX-IN-1 + Lapatinib; first compound 0.2 µM) of 0.768, a relative viability (BMX-IN-1 + Lapatinib; first compound 0.6325 µM) of 0.827 and a relative viability (BMX-IN-1 + Lapatinib; first compound 2 µM) of 0.784.

Cell Line NCI-H2170 has a relative viability (Ibrutinib + Luminespib; first compound 0.005 µM) of 0.435, a relative viability (Ibrutinib + Luminespib; first compound 0.01581 µM) of 0.425 and a relative viability (Ibrutinib + Luminespib; first compound 0.05 µM) of 0.446. The relative viability (Ibrutinib + Luminespib; first compound 0.1581 µM) was 0.741, the relative viability (Ibrutinib + Luminespib; first compound 0.5 µM) was 0.344 and the relative viability (Ibrutinib + Crizotinib; first compound 0.005 µM) was 1.07. For the same cell line, the relative viability (Ibrutinib + Crizotinib; first compound 0.01581 µM) was 0.824, the relative viability (Ibrutinib + Crizotinib; first compound 0.05 µM) was 0.452 and the relative viability (Ibrutinib + Crizotinib; first compound 0.1581 µM) was 1.19. It also gave a relative viability (Ibrutinib + Crizotinib; first compound 0.5 µM) of 0.227, a relative viability (Ibrutinib + AZD7762; first compound 0.005 µM) of 0.699 and a relative viability (Ibrutinib + AZD7762; first compound 0.01581 µM) of 0.695. It also gave a relative viability (Ibrutinib + AZD7762; first compound 0.05 µM) of 0.655, a relative viability (Ibrutinib + AZD7762; first compound 0.1581 µM) of 0.769 and a relative viability (Ibrutinib + AZD7762; first compound 0.5 µM) of 0.182. For the same cell line, the relative viability (BMX-IN-1 + Lapatinib; first compound 0.02 µM) was 0.281, the relative viability (BMX-IN-1 + Lapatinib; first compound 0.2 µM) was 0.28 and the relative viability (BMX-IN-1 + Lapatinib; first compound 0.6325 µM) was 0.272. For the same cell line, the relative viability (BMX-IN-1 + Lapatinib; first compound 2 µM) was 0.271.
